# The source made the active and inactive calls.
# Key:
# [1] = target: Intestinal-type alkaline phosphatase (Mus musculus, UniProt P24822); assay: PubChem AID 488785; type: functional
# [2] = target: T1, Alkaline phosphatase, tissue-nonspecific isozyme (Homo sapiens, UniProt P05186); assay: TNAP enzyme inhibition by screening hits, dose response, selectivity assay for mouse IAP inhibitor project, biochemical, human TNAP, uHTS hits (AID 488906); type: functional
# T1 sequence (P05186 whole entry): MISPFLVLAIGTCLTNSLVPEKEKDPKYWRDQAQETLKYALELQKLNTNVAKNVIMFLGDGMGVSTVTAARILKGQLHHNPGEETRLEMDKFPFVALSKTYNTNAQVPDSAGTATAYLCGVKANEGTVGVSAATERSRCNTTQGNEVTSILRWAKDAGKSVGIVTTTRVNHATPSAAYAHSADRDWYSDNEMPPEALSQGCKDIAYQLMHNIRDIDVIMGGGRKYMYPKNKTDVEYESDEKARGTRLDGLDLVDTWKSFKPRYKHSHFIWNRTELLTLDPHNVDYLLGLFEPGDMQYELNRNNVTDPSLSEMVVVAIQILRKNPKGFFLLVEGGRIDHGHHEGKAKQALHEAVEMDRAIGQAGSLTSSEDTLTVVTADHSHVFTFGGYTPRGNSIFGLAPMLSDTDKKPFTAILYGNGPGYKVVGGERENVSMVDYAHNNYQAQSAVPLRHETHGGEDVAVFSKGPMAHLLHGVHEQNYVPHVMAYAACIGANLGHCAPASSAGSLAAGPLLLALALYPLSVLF
# [3] = target: Intestinal-type alkaline phosphatase (Homo sapiens, UniProt P09923); assay: inhibition of human intestinal alkaline phosphatase – biochemical, dose response (AID 488876); type: functional
# Sequence of Intestinal-type alkaline phosphatase (Homo sapiens, UniProt P09923) (P09923 whole entry): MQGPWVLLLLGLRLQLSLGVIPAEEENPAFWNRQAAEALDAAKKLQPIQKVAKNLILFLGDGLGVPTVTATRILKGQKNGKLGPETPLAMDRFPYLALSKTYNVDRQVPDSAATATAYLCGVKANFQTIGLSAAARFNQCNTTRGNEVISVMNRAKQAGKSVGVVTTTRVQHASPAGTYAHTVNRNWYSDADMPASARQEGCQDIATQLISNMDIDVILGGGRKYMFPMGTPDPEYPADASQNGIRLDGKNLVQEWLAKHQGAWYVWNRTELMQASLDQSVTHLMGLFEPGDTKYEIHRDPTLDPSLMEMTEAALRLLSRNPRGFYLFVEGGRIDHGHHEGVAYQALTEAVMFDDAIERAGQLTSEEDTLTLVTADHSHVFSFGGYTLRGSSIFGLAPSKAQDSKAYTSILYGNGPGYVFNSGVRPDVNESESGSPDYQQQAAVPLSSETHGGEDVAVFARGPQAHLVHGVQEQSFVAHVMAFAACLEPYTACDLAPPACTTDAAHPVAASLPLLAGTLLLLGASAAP
# [4] = Luminescence Cell-Based Dose Retest to Confirm Inhibitors of Cancer Stem Cells. [Related pubchem assays (depositor defined):AID2717, AID2721]; type: functional; conditions: Homo sapiens
# [5] = target: T2, Ubiquitin-conjugating enzyme E2 N (Homo sapiens, UniProt P61088); type: functional;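 further: Dose-response confirmation in a TR-FRET assay detecting UBC13-driven polyubiquitin chain formation, inhibition measured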
# T2 sequence (P61088 whole entry): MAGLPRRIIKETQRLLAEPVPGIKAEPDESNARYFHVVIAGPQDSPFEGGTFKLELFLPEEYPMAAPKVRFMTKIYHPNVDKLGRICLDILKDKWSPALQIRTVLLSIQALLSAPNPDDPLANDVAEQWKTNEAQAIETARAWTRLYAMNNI
# [6] = target: T3, Endoribonuclease toxin MazF (Escherichia coli K-12, UniProt P0AE70); assay: MazF toxin RNase activators, dose response, biochemical, fluorescence, single-stranded RNA substrate, uHTS hits (AID 588481); type: functional
# T3 sequence (P0AE70 whole entry): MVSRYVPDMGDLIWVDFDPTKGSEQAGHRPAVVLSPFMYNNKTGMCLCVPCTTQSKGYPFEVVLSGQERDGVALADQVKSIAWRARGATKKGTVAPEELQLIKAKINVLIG
# [7] = target: T3, Endoribonuclease toxin MazF; assay: fluorescent RNA oligo signal without MazF, dose response, counter-screen for MazEF activator project, biochemical, fluorescence, single-stranded RNase substrate (AID 588502); type: functional
# [8] = A549 cell cytotoxicity, dose response, cytotoxicity control, plate reader, cherry-pick, antagonist series (AID 743412); type: functional, cell-based
# [9] = HepG2 cell cytotoxicity, dose response, cytotoxicity control, plate reader, cherry-pick, antagonist series (AID 743416); type: functional, cell-based
# [10] = LGR2 antagonists, dose response, cell-based, HEK293, CRE-luciferase reporter, cherry pick, set 2 (AID 743343); type: functional;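 further: transfected cells were stimulated with diluted bursicon conditioned medium after compound addition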
# [11] = MC4R antagonists, dose response, counter-screen for LGR2 antagonist project, cell-based, plate reader, cherry pick (AID 743444); type: functional;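 further: transfected HEK 293 cells stimulated with alpha-MSH peptide; potency of inhibitors of the alpha-MSH evoked signal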
# [12] = HEK293 cell cytotoxicity, dose response, cytotoxicity control, plate reader, cherry-picked samples (AID 743446); type: functional, cell-based
# [13] = target: T4, Lysine-specific demethylase 4C (Homo sapiens, UniProt Q9H3R0); assay: GASC-1 (JMJD2C) histone demethylase inhibitors, dose response, biochemical, DELFIA europium, cherry-picked samples (AID 488835); type: functional
# T4 sequence (Q9H3R0 whole entry): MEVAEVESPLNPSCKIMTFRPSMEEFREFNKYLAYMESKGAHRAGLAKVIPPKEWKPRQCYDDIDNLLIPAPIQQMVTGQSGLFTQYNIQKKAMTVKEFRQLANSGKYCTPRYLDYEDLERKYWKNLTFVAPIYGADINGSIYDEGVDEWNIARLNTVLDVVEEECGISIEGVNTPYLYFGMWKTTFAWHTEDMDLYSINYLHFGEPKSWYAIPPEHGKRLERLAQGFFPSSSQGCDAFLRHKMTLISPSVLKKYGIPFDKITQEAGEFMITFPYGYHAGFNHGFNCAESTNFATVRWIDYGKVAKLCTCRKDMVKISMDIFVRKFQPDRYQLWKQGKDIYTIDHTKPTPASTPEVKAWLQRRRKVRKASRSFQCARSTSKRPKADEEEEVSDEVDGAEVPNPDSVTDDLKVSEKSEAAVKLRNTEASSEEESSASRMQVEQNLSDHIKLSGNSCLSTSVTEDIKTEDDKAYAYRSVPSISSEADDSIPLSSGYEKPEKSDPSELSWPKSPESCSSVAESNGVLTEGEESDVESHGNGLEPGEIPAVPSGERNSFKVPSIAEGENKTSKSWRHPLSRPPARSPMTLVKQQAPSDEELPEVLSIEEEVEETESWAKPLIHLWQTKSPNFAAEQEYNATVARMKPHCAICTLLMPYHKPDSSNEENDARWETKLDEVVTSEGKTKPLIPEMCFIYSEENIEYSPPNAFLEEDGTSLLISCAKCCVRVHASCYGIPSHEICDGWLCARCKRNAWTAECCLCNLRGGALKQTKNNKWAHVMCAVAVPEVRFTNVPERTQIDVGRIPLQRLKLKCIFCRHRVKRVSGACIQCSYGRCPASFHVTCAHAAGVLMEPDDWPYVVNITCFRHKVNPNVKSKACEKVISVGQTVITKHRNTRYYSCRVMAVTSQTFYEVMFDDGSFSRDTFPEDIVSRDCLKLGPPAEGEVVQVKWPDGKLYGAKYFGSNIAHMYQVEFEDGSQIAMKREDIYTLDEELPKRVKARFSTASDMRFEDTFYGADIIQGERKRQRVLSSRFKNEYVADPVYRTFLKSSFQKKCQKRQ
# [14] = target: Glyceraldehyde-3-phosphate dehydrogenase (Homo sapiens, UniProt P04406)
# Sequence of Glyceraldehyde-3-phosphate dehydrogenase (P04406 whole entry): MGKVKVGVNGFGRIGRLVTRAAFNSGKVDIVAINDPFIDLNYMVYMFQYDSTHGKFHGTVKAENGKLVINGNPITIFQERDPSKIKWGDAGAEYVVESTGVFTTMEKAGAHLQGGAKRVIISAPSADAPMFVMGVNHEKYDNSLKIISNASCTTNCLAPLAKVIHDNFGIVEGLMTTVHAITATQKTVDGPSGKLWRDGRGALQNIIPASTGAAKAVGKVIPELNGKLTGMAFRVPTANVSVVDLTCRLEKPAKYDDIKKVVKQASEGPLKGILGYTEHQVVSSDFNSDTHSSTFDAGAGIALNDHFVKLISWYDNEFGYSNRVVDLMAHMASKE
# [15] = target: T1, Alkaline phosphatase, tissue-nonspecific isozyme; assay: human TNAP enzyme inhibitors, SAR follow-up, biochemical, luminescent, dose response (AID 1056)
# [16] = inhibitors of intracellular T. cruzi replication, confirmation, NIH3T3 host cells, beta-gal luminescence (AID 2044); type: functional, cell-based;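 further: intracellular parasites grown in NIH/3T3 mouse fibroblasts as host cells; luminescent beta-galactosidase reporter signal from transgenic T. cruzi replicating inside host cells; inhibitors lower the luminescence signal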
# [17] = cytotoxicity toward NIH3T3 fibroblasts, dose response, counter-screen, cell-based, ATP luminescence, mouse fibroblasts (AID 2010); type: functional;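 further: cells exposed to compound for about 90 hours before reading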
# [18] = cytotoxicity in HMLE control line with eGFP shRNA, dose response, counter-screen for HMLE_sh_ECad selective toxicity project, cell-based, HMLE_sh_eGFP, luminescence (AID 463074); type: functional, Homo sapiens;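 further: HMLE human mammary epithelial cells expressing control shRNA against eGFP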
# H9c2 = assay: cells; type: functional, cell-based; conditions: Rattus norvegicus, H9c2, Myocardium;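 further: confirmatory concentration-response retest of ultra-high-throughput screening hits for modulation of myocardial damage; cell death induced by hydrogen peroxide oxidative stress; compound pretreatment for 60 min then peroxide exposure for 2 h; potency is for protecting the cells against peroxide damage rather than for killing them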
# SUMO E1/E2 = SUMO E1/E2 (Homo sapiens, UniProt P63279+Q9UBE0+Q9UBT2); assay: SAR analysis of SUMOylation using HTRF in an in-Vitro dose response assay. [Related pubchem assays (depositor defined):AID2006, AID2011, AID2018, AID2069, AID2658]; type: functional
# Sequence of SUMO E1/E2 (Q9UBE0 whole entry): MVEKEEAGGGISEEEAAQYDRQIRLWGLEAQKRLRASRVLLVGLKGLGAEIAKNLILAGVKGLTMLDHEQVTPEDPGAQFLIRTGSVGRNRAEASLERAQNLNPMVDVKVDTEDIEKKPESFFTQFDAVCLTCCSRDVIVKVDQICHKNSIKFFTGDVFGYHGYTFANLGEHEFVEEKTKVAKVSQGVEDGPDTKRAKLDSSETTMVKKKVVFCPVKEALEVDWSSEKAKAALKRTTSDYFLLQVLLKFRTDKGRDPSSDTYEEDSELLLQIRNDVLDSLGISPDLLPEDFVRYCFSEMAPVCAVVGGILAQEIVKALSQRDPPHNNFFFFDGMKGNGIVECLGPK
# Sequence of SUMO E1/E2 (Q9UBT2 whole entry): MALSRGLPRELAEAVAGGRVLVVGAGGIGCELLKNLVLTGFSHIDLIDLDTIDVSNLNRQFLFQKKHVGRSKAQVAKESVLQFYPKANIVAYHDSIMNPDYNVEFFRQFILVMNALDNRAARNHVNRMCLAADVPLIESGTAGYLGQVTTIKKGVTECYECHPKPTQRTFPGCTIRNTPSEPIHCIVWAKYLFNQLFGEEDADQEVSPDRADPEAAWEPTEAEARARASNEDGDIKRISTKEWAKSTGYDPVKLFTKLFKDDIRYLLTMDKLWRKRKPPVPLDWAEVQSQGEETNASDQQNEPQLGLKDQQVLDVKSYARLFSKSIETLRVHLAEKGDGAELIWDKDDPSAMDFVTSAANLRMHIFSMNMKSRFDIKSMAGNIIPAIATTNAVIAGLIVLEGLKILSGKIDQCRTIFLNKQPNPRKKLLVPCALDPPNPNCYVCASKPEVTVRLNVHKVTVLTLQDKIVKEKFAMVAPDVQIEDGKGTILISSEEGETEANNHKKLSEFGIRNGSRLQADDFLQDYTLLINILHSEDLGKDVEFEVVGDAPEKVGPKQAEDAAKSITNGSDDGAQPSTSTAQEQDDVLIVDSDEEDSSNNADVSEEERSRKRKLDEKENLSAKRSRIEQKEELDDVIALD
# Sequence of SUMO E1/E2 (P63279 whole entry): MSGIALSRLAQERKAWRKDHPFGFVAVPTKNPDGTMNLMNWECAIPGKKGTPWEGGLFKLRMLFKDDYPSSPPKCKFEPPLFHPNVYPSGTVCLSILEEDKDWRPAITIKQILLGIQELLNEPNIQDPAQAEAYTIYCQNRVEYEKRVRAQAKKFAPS
# Hexokinase HKDC1 = target: T5, Hexokinase HKDC1 (Homo sapiens, UniProt Q2TB90); assay: HKDC1 hexokinase activators, dose response, biochemical, W721R variant (AID 504730); type: functional
# T5 sequence (Q2TB90 whole entry): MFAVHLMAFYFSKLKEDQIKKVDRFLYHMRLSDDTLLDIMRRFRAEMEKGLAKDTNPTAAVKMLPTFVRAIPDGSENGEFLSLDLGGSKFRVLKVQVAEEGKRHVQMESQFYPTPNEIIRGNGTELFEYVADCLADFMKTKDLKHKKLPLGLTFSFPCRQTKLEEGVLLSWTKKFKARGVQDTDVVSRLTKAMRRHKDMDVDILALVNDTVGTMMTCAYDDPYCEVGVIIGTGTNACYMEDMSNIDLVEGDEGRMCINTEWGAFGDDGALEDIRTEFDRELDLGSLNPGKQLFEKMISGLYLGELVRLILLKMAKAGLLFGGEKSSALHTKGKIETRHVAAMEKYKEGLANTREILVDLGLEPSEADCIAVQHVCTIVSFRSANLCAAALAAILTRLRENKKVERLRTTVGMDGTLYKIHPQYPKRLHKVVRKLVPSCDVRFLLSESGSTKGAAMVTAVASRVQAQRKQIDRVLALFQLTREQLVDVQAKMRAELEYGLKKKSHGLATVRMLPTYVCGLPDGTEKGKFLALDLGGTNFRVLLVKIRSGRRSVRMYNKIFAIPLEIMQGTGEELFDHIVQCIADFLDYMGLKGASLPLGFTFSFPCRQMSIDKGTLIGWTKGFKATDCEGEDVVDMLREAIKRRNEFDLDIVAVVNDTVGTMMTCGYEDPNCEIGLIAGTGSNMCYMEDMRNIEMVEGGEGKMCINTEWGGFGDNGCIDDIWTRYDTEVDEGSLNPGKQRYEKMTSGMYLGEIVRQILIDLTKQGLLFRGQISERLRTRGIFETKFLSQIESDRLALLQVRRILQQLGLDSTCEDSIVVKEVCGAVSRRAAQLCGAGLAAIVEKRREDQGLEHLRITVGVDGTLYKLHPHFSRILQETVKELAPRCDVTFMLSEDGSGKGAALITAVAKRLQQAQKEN
# Nonstructural protein 1 = Nonstructural protein 1 (Influenza A virus, UniProt Q194T2); type: functional, Influenza A virus (A/California/07/2009(H1N1))
# Sequence of Nonstructural protein 1 (Q194T2 whole entry): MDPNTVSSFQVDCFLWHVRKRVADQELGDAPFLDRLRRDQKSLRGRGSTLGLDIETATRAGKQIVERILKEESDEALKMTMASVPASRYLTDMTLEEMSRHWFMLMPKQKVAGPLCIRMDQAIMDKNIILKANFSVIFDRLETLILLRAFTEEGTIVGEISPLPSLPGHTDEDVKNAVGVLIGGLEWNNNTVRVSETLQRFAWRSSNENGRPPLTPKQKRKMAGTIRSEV
# Hexokinase-1 = target: T6, Hexokinase-1 (Homo sapiens, UniProt P19367); assay: hexokinase 1 activators, dose response, selectivity assay for HKDC1 activator project, biochemical (AID 504762); type: functional
# T6 sequence (P19367 whole entry): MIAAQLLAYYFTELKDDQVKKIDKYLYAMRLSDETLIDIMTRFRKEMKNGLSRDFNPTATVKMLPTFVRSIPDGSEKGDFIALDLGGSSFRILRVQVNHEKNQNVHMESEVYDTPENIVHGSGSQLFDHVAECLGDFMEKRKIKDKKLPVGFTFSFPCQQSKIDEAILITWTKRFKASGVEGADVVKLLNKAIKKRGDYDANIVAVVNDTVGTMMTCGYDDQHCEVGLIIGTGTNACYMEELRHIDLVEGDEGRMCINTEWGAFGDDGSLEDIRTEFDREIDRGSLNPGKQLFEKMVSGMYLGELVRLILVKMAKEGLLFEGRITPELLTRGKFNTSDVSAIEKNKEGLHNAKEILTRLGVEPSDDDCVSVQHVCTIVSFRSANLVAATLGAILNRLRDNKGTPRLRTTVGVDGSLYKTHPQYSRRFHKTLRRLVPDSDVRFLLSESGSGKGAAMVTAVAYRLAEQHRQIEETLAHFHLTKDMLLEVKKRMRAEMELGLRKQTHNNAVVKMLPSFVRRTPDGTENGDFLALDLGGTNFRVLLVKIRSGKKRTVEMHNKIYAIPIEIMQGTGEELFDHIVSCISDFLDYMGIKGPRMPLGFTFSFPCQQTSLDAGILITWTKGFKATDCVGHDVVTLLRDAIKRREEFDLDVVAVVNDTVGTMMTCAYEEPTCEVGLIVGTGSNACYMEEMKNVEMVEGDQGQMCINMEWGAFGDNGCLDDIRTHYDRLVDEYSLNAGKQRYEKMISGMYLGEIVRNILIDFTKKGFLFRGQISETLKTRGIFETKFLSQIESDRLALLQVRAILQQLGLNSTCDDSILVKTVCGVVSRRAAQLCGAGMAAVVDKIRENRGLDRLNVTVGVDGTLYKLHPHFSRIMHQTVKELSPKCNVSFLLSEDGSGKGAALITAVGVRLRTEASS
# [19] = target: Heat shock protein HSP 90-alpha (Homo sapiens, UniProt P07900); type: functional, organism-based
# Sequence of Intestinal-type alkaline phosphatase (Mus musculus, UniProt P24822) (P24822 whole entry): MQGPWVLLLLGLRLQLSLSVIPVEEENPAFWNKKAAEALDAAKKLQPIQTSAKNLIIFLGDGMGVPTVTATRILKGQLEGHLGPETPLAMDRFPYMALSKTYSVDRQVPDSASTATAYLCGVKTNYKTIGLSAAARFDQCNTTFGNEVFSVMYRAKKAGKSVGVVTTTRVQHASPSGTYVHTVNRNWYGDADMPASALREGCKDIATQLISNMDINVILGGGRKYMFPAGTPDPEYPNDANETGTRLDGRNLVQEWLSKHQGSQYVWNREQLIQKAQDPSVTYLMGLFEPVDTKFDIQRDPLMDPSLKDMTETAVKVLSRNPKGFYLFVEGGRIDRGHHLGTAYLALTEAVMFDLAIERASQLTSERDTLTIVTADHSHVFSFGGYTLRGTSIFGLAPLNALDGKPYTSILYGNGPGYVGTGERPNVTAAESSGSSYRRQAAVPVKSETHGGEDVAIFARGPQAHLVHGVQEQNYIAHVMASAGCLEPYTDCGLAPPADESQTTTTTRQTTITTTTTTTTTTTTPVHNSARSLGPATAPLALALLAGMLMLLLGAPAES
smiles,measurement,setting,value
Cc1ccc(NC(=S)NCc2ccccc2)cc1S(=O)(=O)N1CCCCC1,IC50,[1],1.4 µM (active)
same,IC50,[2],> 100 µM (inactive)
same,IC50,[3],> 100 µM (inactive)
O=C(Nc1ccc(Cl)c(C(F)(F)F)c1)NC1CC2CCCC(C1)N2Cc1ccccc1 (configuration not stated),AC50,[4],6.55 µM (active)
same,IC50,[5],> 20 µM (inactive)
same,IC50,[1],11.2 µM (active)
same,IC50,[2],> 100 µM (inactive)
same,IC50,[3],> 100 µM (inactive)
same,EC50,[6],> 99 µM (inactive)
same,EC50,[7],> 99 µM (inactive)
same,AC50,[8],11.4 µM (active)
same,AC50,[9],12.6 µM (active)
same,AC50,[10],39 µM (active)
same,AC50,[11],33.5 µM (active)
same,AC50,[12],29.6 µM (active)
CN1C(=O)C(=Cc2ccc(N3CCCCCC3)cc2)C(=O)N(C)C1=O,AC50,[13],13.1 µM (active)
CCOc1ccc(OCC)c(S(=O)(=O)Nc2cccnc2)c1,IC50,[14],> 100 µM (not active)
same,IC50,[15],4.44 µM (active)
COc1ccc(C(=O)CCN2CCN(c3ccccc3F)CC2)cc1,EC50,[16],2.19 µM (active)
same,EC50,[17],7.83 µM (active)
same,AC50,[4],17.2 µM (active)
same,AC50,[18],35.3 µM (active)
COc1ccc(-c2nn3c(-c4ccco4)nnc3s2)cc1OC,AC50,[13],10.3 µM (active)
same,IC50,H9c2,11.2 µM (active)
O=C(O)c1cc(-c2ccc(F)cc2)n[nH]1,IC50,[14],> 100 µM (not active)
same,IC50,[15],4.74 µM (active)
C/C(=N\OCc1nc2ccccc2c(=O)n1/N=C/c1cc(Br)ccc1O)c1ccccc1,IC50,SUMO E1/E2,14.7 µM (active)
CC(=NNC(=S)N1CC2CCC(CC2)C1)c1ccncn1,EC50,Hexokinase HKDC1,13.3 µM (active)
same,IC50,Nonstructural protein 1,3.98 µM (active)
same,EC50,Hexokinase-1,> 80 µM (inactive)
same,AC50,[19],3.03 µM (active)
O=C(O)c1ccc2c(c1)C1C=CCC1C(c1ccccc1)N2 (configuration not stated),IC50,SUMO E1/E2,> 100 µM (inactive)

# Source: ChEMBL document CHEMBL1201862, “PubChem BioAssay data set” (2004)
